Results from US11261186B2, “Biaryl derivative as GPR120 agonist” (LG CHEM, LTD., priority 2014, dated 2022).

Molecular target: T1, hGPR120 (Homo sapiens, UniProt Q5NUL3)
T1 construct: expressed in transfected cells; host or cells: CHO-K1
T1 sequence (Q5NUL3 1-361): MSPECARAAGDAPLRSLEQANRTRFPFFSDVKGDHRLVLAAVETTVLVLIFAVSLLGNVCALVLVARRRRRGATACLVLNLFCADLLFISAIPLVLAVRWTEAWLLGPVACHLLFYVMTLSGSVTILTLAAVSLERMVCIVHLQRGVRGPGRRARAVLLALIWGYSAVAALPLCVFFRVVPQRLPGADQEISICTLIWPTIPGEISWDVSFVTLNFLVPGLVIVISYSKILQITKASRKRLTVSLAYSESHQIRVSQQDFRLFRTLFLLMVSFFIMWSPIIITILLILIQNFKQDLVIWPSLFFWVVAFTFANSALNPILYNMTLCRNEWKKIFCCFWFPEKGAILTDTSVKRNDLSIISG
Test: Measurement of Activity of GPR120 Agonist (Cell-Based Assay), Calcium 5 dye fluorescence
Conditions: CHO-K1 cells expressing Ga16 and hGPR120
Description: CHO-K1 cells expressing Ga16 and hGPR120 were dispensed into each well of a 96-well plate (3×10^4 cells/100 μl/well) and then incubated in 5% CO2, 37° C. incubator for 18 hours. Each well was treated with 100 μl of Calcium 5 dye (Molecular Devices) solution including 2% DMSO and then incubated in 5% CO2, 37° C. incubator for 1 hour. Serially diluted GPR120 agonists were prepared to a final concentration of 0.5% DMSO in a 96-well plate. Each well was treated with 50 μl of the agonist compounds using Plexstation II, and then fluorescence was measured at Ex 485 nm and Em 525 nm.
Fluorescence increased by the serially diluted GPR120 agonists is calculated as a relative percent (%) value based on the fluorescence represented by the treatment of 1% DMSO only. […] The calculation of measurement was carried out by using statistical software (Prizm).
Activity is denoted based on the following criteria: […]

Row | SMILES | EC50 [nM]
1 | O=C(O)CCCC1(c2c(F)cc(-c3cccc(OC4CCC4)n3)cc2F)CC1 [Example 168, 4-{1-[4-(6-cyclobutoxy-pyridin-2-yl)-2,6-difluoro-phenyl]-cyclopropyl}-butyric acid] | < 200
2 | O=C(O)CCCOc1c(F)cc(-c2cc(F)cc(OC3CCC3)c2)cc1F [Example 528, 4-(5′-cyclobutoxy-3,5,3′-trifluoro-biphenyl-4-yloxy)-butyric acid] | < 200
3 | Cc1ccc(OCC2CCC2)cc1-c1cc(F)c(N(C)CCCC(=O)O)c(F)c1 [Example 529, 4-[(5′-cyclobutylmethoxy-3,5-difluoro-2′-methyl-biphenyl-4-yl)-methyl-amino]-butyric acid] | 200 to 2000
4 | O=C(O)CC1CCN(c2c(F)cc(-c3cncc(OC4CCC4)n3)cc2F)CC1 [Example 329, 2-[1-[4-[6-(cyclobutoxy)pyrazin-2-yl]-2,6-difluoro-phenyl]-4-piperidyl]acetic acid] | < 200
5 | COc1ccc(-c2cc(F)c(N(C)CCCC(=O)O)c(F)c2)nc1OCC1CC1 [Example 461, 4-[4-[6-(cyclopropylmethoxy)-5-methoxy-2-pyridyl]-2,6-difluoro-N-methyl-anilino]butanoic acid] | 200 to 2000
6 | O=C(O)C1CC1COc1c(F)cc(-c2csc(OC3CCC3)n2)cc1F (stereo not shown) [Example 551, 2-[4-(2-cyclobutoxy-thiazol-4-yl)-2,6-difluoro-phenoxymethyl]-cyclopropanecarboxylic acid] | 200 to 2000
7 | CN(CCCC(=O)O)c1c(F)cc(-c2ccc(COCC3CC3)o2)cc1F [Example 473, 4-[4-[5-(cyclopropylmethoxymethyl)-2-furyl]-2,6-difluoro-N-methyl-anilino]butanoic acid] | 200 to 2000
8 | O=C(O)CCCOc1c(F)cc(-c2cc(F)cc(OC3CCC3)c2)cc1Cl [Example 389, 4-[2-chloro-4-[3-(cyclobutoxy)-5-fluoro-phenyl]-6-fluoro-phenoxy]butanoic acid] | < 200
9 | CC(C)Sc1ncccc1-c1cc(F)c(-n2cc(CCC(=O)O)cn2)c(F)c1 [Example 131, 3-[1-[2,6-difluoro-4-(2-isopropylsulfanyl-3-pyridyl)phenyl]pyrazol-4-yl]propanoic acid] | 2000 to 20000
10 | O=C(O)COCCc1c(F)cc(-c2cccnc2SC2CCC2)cc1F [Example 38, {2-[4-(2-cyclobutylsulfanyl-3-pyridyl)-2,6-difluoro-phenyl]ethoxy}acetic acid] | 200 to 2000
11 | O=C(O)C[C@H]1CCN(c2c(F)cc(-c3cccnc3OC3CCCC3)cc2F)C1 [Example 135, 2-[(3R)-1-[4-[2-(cyclopentoxy)-3-pyridyl]-2,6-difluoro-phenyl]pyrrolidin-3-yl]acetic acid] | < 200
12 | O=C(O)CCCCNc1c(F)cc(-c2cccnc2OC2CCCC2)cc1F [Example 94, 5-[4-[2-(cyclopentoxy)-3-pyridyl]-2,6-difluoro-anilino]pentanoic acid] | < 200
13 | CC(C)OCc1cccc(-c2cc(F)c(N3CCC(CC(=O)O)CC3)c(F)c2)c1 [Example 302, 2-[1-[2,6-difluoro-4-[3-(isopropoxymethyl)phenyl]phenyl]-4-piperidyl]acetic acid] | 200 to 2000
14 | CC(C)Sc1ncccc1-c1cc(F)c(N2CCCC(CC(=O)O)C2)c(F)c1 (stereo not shown) [Example 108, 2-[1-[2,6-difluoro-4-(2-isopropylsulfanyl-3-pyridyl)phenyl]-3-piperidyl]acetic acid] | 2000 to 20000
15 | CCCOc1cccc(-c2cc(F)c(N3CCC(CCC(=O)O)CC3)c(F)c2)n1 [Example 620, 3-{1-[2,6-difluoro-4-(6-propoxy-pyridin-2-yl)-phenyl]-piperidin-4-yl}-propionic acid] | 200 to 2000
16 | Cc1cc(OC2CCC2)nc(-c2cc(F)c(N3CCC(CC(=O)O)C3)c(F)c2)c1 (stereo not shown) [Example 577, {1-[4-(6-cyclobutoxy-4-methyl-pyridin-2-yl)-2,6-difluoro-phenyl]-pyrrolidin-3-yl}-acetic acid] | 200 to 2000
17 | O=C(O)CCCOc1c(F)cc(-c2nccc(OC3CCC3)n2)cc1F [Example 420, 4-[4-(4-cyclobutoxy-pyrimidin-2-yl)-2,6-difluoro-phenoxy]-butyric acid] | < 200
18 | O=C(O)CCC1CC1c1c(F)cc(-c2cccnc2OC2CCC2)cc1F (stereo not shown) [Example 188, 3-{2-[4-(2-cyclobutoxy-pyridin-3-yl)-2,6-difluoro-phenyl]-cyclopropyl}-propanoic acid] | < 200
19 | CN(CCCC(=O)O)c1c(F)cc(-c2cccnc2OC2CCC2)cc1F [Example 206, 4-{[4-(2-cyclobutoxy-pyridin-3-yl)-2,6-difluoro-phenyl]-methyl-amino}-butyric acid] | < 200

Now from value to compound:

Row | EC50 [nM] | SMILES
20 | < 200 | CC(C)Sc1ncccc1-c1cc(F)c(N2CCC(CC(=O)O)C2)c(F)c1 (stereo not shown) [Example 124, 2-[1-[2,6-difluoro-4-(2-isopropylsulfanyl-3-pyridyl)phenyl]pyrrolidin-3-yl]acetic acid]
21 | 200 to 2000 | CCN(CC)c1cncc(-c2cc(F)c(N3CCC(CC(=O)O)C3)c(F)c2)n1 (stereo not shown) [Example 506, 2-{1-[2,6-difluoro-4-(6-diethylamino-pyrazin-2-yl)phenyl]pyrrolidin-3-yl}acetic acid]
22 | < 200 | O=C(O)CCCCc1c(F)cc(-c2cccnc2OCC2CCC2)cc1F [Example 250, 5-[4-(2-cyclobutylmethoxy-pyridin-3-yl)-2,6-difluoro-phenyl]-pentanoic acid]
23 | < 200 | CC(C)Sc1ncccc1-c1cc(F)c(C(C)CCCC(=O)O)c(F)c1 (stereo not shown) [Example 50, 5-[2,6-difluoro-4-(2-isopropylsulfanyl-3-pyridyl)-phenyl]hexanoic acid]
24 | < 200 | O=C(O)CCC1CC1c1c(F)cc(-c2cccnc2SC2CCCC2)cc1F (stereo not shown) [Example 182, 3-{2-[4-(2-cyclopentylsulfanyl-pyridin-3-yl)-2,6-difluoro-phenyl]-cyclopropyl}-propanoic acid]
25 | < 200 | COc1ccc(-c2cc(F)c(OCCCC(=O)O)c(F)c2)cc1OCC1CC1 [Example 526, 4-(3′-cyclopropylmethoxy-3,5-difluoro-4′-methoxy-biphenyl-4-yloxy)-butyric acid]
26 | < 200 | Oc1cc(COc2c(F)cc(-c3cccnc3OCC3CCC3)cc2F)on1 [Example 77, 5-[[4-[2-(cyclobutylmethoxy)-3-pyridyl]-2,6-difluoro-phenoxy]methyl]isoxazol-3-ol]
27 | < 200 | O=C(O)CC1CCN(c2c(F)cc(-c3nccc(Oc4ccccc4)n3)cc2F)CC1 [Example 510, 2-[1-[4-[4-phenoxy-pyrimidin-2-yl]-2,6-difluoro-phenyl]-4-piperidyl]acetic acid]
28 | < 200 | O=C(O)CCCOc1c(F)cc(-c2csc(COCC3CC3)c2)cc1F [Example 566, 4-[4-(5-cyclopropylmethoxymethyl-thiophen-3-yl)-2,6-difluoro-phenoxy]-butanoic acid]
29 | < 200 | Cc1cc2cc(Cl)cc(-c3cc(F)c(OCCCC(=O)O)c(F)c3)c2o1 [Example 518, 4-[4-(5-chloro-2-methyl-benzofuran-7-yl)-2,6-difluoro-phenoxy]-butyric acid]
30 | < 200 | O=C(O)CCCOc1c(F)cc(-c2cccc3c2OC2(CCCC2)O3)cc1F [Example 287, 4-(2,6-difluoro-4-spiro[1,3-benzodioxol-2,1′-cyclopentan]-4-yl-phenoxy)butanoic acid]
31 | < 200 | CN(CCCC(=O)O)c1c(F)cc(-c2cccc(NCC3CC3)c2)cc1F [Example 466, 4-[4-[3-(cyclopropylmethylamino)phenyl]-2,6-difluoro-N-methyl-anilino]butanoic acid]
32 | < 200 | CN(CCCC(=O)O)c1c(F)cc(-c2cccc3c2OC2(CCCC2)O3)cc1F [Example 449, 4-(2,6-difluoro-N-methyl-4-spiro[1,3-benzodioxol-2,1′-cyclopentan]-4-yl-anilino)butanoic acid]
33 | < 200 | O=C(O)CCC1CCc2cc(-c3cccnc3SC3CCC3)ccc2S1 (stereo not shown) [Example 275, 3-[6-(2-cyclobutylsulfanyl-pyridin-3-yl)-thiochroman-2-yl]-propionic acid]
34 | < 200 | CCCOc1cccc(-c2cc(F)c(OCCCC(=O)O)c(F)c2)c1OCCC [Example 454, 4-[4-(2,3-dipropoxyphenyl)-2,6-difluoro-phenoxy]butanoic acid]
35 | < 200 | C[C@H](C/C=C/C(=O)O)c1c(F)cc(-c2cccnc2SC2CCC2)cc1F [Example 228, (E)-(R)-5-[4-(2-cyclobutylsulfanyl-pyridin-3-yl)-2,6-difluoro-phenyl]-hex-2-enoic acid]
36 | < 200 | CC(C)Oc1ncccc1-c1cc(F)c(C(C)CCCC(=O)O)c(F)c1 (stereo not shown) [Example 46, 5-[2,6-difluoro-4-(2-isopropoxy-3-pyridyl)phenyl]hexanoic acid]
37 | < 200 | CC(C)Sc1ncccc1-c1cc(F)c(OCc2cc(O)no2)c(F)c1 [Example 68, 5-[[2,6-difluoro-4-(2-isopropylsulfanyl-3-pyridyl)phenoxy]methyl]isoxazol-3-ol]
